A word on the IC50: it is the concentration that gives 50% inhibition. A lower IC50 goes with higher potency. In general, EC50 refers to the midpoint of the concentration-response curve.

Data on one compound can be found in article PMC3001897, “High-Throughput Chemical Screen Identifies a Novel Potent Modulator of Cellular Circadian Rhythms and Reveals CKIα as a Clock Regulatory Kinase” (PLoS Biology, 2010).

Where “and” joins values, the source holds several entries; their conditions need not be identical. Equal values may be shown once. Some results are limits rather than exact numbers.

Data set [1] relates to Bmal1-dLuc U2OS cells. Kind of data set: U2OS cell-based circadian assay (Bmal1-dLuc luminescence rhythms). Also noted: species or system human. On the procedure:
(§1) The compound screen was done with the high-throughput circadian assay system as described previously. In brief, Bmal1-dLuc U2OS cells were suspended in the culture medium (DMEM supplemented with 10% fetal bovine serum, 0.29 mg/ml L-glutamine, 100 units/ml penicillin, and 100 µg/ml streptomycin) and plated onto 384-well white solid-bottom plates at 20 µl (2,000 cells) per well. After 2 d, 50 µl of the explant medium (DMEM supplemented with 2% B27, 10 mM HEPES, 0.38 mg/ml sodium bicarbonate, 0.29 mg/ml L-glutamine, 100 units/ml penicillin, 100 µg/ml streptomycin, 0.1 mg/ml gentamicin, and 1 mM luciferin, pH 7.2) was dispensed to each well, followed by the application of 500 nl of compounds (dissolved in DMSO; final 0.7% DMSO). The plate was covered with an optically clear film and set to luminescence monitoring system equipped with a CCD imager (ViewLux, Perkin Elmer). The luminescence was recorded every 2 h for 3–4 days. In follow-up studies, the luminescence was recorded every 100 min by using a microplate reader (Infinite M200, Tecan). The period parameter was obtained from the luminescence rhythm by curve fitting program CellulaRhythm or MultiCycle (Actimetrics), both of which gave similar results.

A further data set deals with T1, ERK2 (Homo sapiens, UniProt P28482).
T1 construct: purchased Millipore 14-550
T1 sequence (P28482 whole entry, species assumed): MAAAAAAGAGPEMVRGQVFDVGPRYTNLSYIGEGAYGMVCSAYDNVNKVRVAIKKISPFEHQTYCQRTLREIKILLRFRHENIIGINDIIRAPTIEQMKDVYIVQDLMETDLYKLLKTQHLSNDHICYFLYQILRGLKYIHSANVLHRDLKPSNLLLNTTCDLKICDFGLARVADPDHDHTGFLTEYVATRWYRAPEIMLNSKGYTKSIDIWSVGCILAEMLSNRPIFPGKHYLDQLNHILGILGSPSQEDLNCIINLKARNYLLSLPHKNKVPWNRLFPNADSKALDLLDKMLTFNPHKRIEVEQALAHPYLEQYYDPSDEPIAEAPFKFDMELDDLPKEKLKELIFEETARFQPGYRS
Kind of data set: In vitro kinase assay, ERK2. The data set is classed as biochemical. The method, then:
The CKIδ, CKIα, CDK7, and ERK2 kinase assays were performed on 384-well plates (10 µl volume). The reaction mixture was as follows: for CKIδ, 2 ng/µl CKIδ (Millipore, 14-520), 50 µM peptide substrate RKKKAEpSVASLTSQCSYSS corresponding to human PER2 Lys659-Ser674 [47], and CKI buffer (40 mM Tris, 10 mM MgCl2, 0.5 mM DTT, 0.1 mg/ml BSA, pH 7.5); for CKIα, 1 ng/µl CKIα (Invitrogen, PV3850), 50 µM CKI peptide substrate (Anaspec, 60547-1), and CKI buffer; for CDK7, 5 ng/µl CDK7 (Millipore, 14-476), 100 µM Cdk7/9 peptide substrate (Millipore, 12-526), and CKI buffer; for ERK2, 1.5 ng/µl ERK2 (Millipore, 14-550), 0.8 µg/µl MBP (Millipore, 13-104), and ERK buffer (50 mM Tris, 10 mM MgCl2, 0.5 mM DTT, 1 mM EGTA, pH 7.5). Five hundred nl of compound was added to the mixture (final 5% DMSO), and the reaction was started by adding ATP (final 5 µM). After incubation at 30°C for 3h, 10 µl of Kinase-Glo Luminescent Kinase Assay reagent (Promega) was added, and the luminescence was detected to determine remaining ATP amount. […] IC50 value was obtained by using Prism software (GraphPad Software).

Another data set concerns the target p38α (Homo sapiens, UniProt Q16539). Kind of data set: In vitro kinase assay, p38α (unpublished data). Type of data set: biochemical.
The next data set deals with CKIδ (Homo sapiens, UniProt P48730). As to the kind of experiment: Cell-based PER1 degradation assay (PER1-LUC), CKIδ. The method, then:
HEK293T cells (6.0×10^4 cells) were reverse transfected on 96-well white solid-bottom plates by Lipofectamine 2000 with 40 ng each of expression vectors for C-terminally luciferase-fused PER1 (in p3XFLAG-CMV-14) and N-terminally HA-tagged kinase (in p3XFLAG-CMV-14). For luciferase (in p3XFLAG-CMV-14), 2 ng of expression vector with 38 ng of empty vector was used because of its efficient expression. After 48 h, the medium was supplemented with luciferin (final 1 mM) and HEPES-NaOH (pH 7.2; final 10 mM). After 1 h, cycloheximide (final 20 µg/ml) was added to the medium, and the plate was covered with optically clear film. The luminescence was recorded every 10 min by using the Tecan luminometer. Half-life was obtained by using Prism software (GraphPad Software).

The subject of a further data set is adult tail fibroblasts. Kind of data set: Circadian period in adult tail fibroblasts from mPer2Luc knockin mice. Type of data set: cell-based, mouse. The method, then:
Luminescence rhythms of adult tail fibroblasts and embryonic fibroblasts from mPer2^Luc knockin mice were analyzed similarly to U2OS cells, except that 1,800 cells were plated per well. Because of the low luminescence intensity of the fibroblasts, the higher sensitivity ViewLux imager was used for rhythm recording.

The subject of another data set is lung explants. Kind of data set: Circadian period in lung explants from mPer2Luc knockin mice. The data set is classed as cell-based, mouse. Conditions: 0 to 9 µM. On the procedure:
Explants of lung and SCN were dissected from mPer2^Luc knockin mice and cultured in explant medium as described previously. The medium was changed every week with increasing concentration of longdaysin each time (from 0 to 9 µM, final 0.7% DMSO). The luminescence was recorded every 10 min with LumiCycle luminometer (Actimetrics), and the period parameter was obtained by using LumiCycle Analysis software (Actimetrics).

Data set [2] relates to Bmal1-dLuc U2OS cells. As to the kind of experiment: Time-course assay of endogenous PER1 abundance with parallel luminescence rhythms. The conditions noted are these: for Period of Bmal1-dLuc luminescence rhythm: control 0 µM 26 h; for Time of second trough of Bmal1-dLuc luminescence rhythm: control 0 µM 34 h; for Time of second peak of PER1 protein rhythm: control 0 µM 40 h. Type of data set: cell-based, human. The method, then: Bmal1-dLuc U2OS cells were plated onto 6-well-plates (2.0×10^5 cells/well). After 2 d, the medium was replaced with 2 ml explant medium containing 0, 3, or 9 µM longdaysin. The plate was covered with film and kept at 36°C. At indicated time points, the cells were collected with ice-cold PBS and stored at −80°C. Then the cell pellets were homogenized in SDS sample buffer and analyzed by Western blotting with anti-PER1 antibody (Cosmo Bio, KAL-KI044) or anti-α-tubulin antibody. In parallel, luminescence rhythms of the cells plated on 35 mm dishes were recorded with LumiCycle luminometer at 36°C.

In data set [3] the test system is Bmal1-dLuc U2OS cells. Kind of data set: Cytotoxicity in the U2OS circadian assay. Type of data set: cell-based, human. The method, then: as §1
Where [4] appears, read: Bmal1-dLuc U2OS cells, from Figure 1B.

Sequence of CKIδ (P48730 whole entry, species assumed, the tested form may be a part): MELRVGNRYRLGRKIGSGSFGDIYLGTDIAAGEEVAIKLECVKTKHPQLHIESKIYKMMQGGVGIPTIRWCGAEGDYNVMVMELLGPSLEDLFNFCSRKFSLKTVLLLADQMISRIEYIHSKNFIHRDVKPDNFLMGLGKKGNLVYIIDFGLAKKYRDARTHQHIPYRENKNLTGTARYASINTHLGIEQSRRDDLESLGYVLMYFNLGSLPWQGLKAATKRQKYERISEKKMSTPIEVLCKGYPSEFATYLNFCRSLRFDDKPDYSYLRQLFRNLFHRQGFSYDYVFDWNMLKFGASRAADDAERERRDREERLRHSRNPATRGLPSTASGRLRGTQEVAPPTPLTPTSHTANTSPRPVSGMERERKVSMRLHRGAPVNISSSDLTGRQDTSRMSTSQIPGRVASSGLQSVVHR
Sequence of p38α (Q16539 whole entry): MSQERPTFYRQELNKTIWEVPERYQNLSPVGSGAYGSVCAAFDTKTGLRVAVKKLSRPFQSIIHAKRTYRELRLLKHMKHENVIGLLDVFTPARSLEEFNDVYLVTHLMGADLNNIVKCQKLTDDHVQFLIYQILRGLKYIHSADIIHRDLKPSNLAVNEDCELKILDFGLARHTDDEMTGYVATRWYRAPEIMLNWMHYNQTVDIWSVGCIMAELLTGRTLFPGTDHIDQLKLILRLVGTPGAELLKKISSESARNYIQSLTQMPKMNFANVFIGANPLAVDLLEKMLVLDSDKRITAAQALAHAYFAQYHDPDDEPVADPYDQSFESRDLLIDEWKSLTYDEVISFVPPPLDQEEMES

Turning to `CC(C)n1cnc2c(NCc3cccc(C(F)(F)F)c3)ncnc21` [Longdaysin, 9-isopropyl-N-(3-(trifluoromethyl)benzyl)-9H-purin-6-amine], the “Period change (lengthening)” value with Bmal1-dLuc U2OS cells [1] (10 µM, U2OS cells) was > 10 h and 13 h. In the data set on Bmal1-dLuc U2OS cells [1] (setting [4]), the “Concentration for period change, 5 h” value worked out at 1.5 µM; the “Concentration for period change, 10 h” value is reported as 5.7 µM; the “Concentration for period change, 15 h” value is listed as 13 µM. Further, the “Potency relative to compound 1 (times more potent)” value in the data set on Bmal1-dLuc U2OS cells [1] (period lengthening) was determined as 3 times. The “Reversibility of period effect after washout” value in the data set with Bmal1-dLuc U2OS cells [1] (washout, U2OS cells, mouse fibroblasts, lung (Figure S2)) is “reversible”. The same compound registered an IC50 at ERK2 (ATP 5 µM, from Figure 2E) of 52 µM. In addition, the “Inhibition of ERK2 in vitro” value at ERK2 (range of 3 to 24 µM) is “considerably inhibited ERK2 in vitro”. Besides, the “Effect on p38α activity” value on p38α is recorded as “much less effect”. In addition, the EC50 on CKIδ (HEK293T cells, 24 h treatment, from Figure 4E) was found to be 9.7 µM. Further, the “Effect on CKIδ-dependent degradation of PER1” value on CKIδ (HEK293T, 0 to 20 µM, 24 h) was “inhibited by longdaysin treatment in a dose-dependent manner”. In addition, the “Effect on circadian period” value in the data set on adult tail fibroblasts is recorded as “dose-dependent period lengthening”. Further, the “Effect on circadian period” value with lung explants is reported as “dose-dependent period lengthening”. In the data set on Bmal1-dLuc U2OS cells [2] (3 µM), the “Period of Bmal1-dLuc luminescence rhythm” value came to 32 h, the “Time of second trough of Bmal1-dLuc luminescence rhythm” value is on record as 38 h and the “Time of second peak of PER1 protein rhythm” value lay in the range of 40 to 46 h. Besides, in the data set on Bmal1-dLuc U2OS cells [2] (9 µM), the “Period of Bmal1-dLuc luminescence rhythm” value came out at 38 h, the “Time of second trough of Bmal1-dLuc luminescence rhythm” value is 46 h and the “Time of second peak of PER1 protein rhythm” value was 52 h. Moreover, the “Overall protein amount of endogenous PER1” value in the data set on Bmal1-dLuc U2OS cells [2] (3 or 9 µM versus 0 µM control) is “strongly up-regulated”. Moreover, the “PER1 mRNA level” value in the data set with Bmal1-dLuc U2OS cells [2] (3 or 9 µM, RT-qPCR) is given as “without affecting its mRNA level”. Further, the Concentration showing cytotoxicity with Bmal1-dLuc U2OS cells [3] came to 71 µM.
